How the values were obtained:
Assay in all cases: fitness (endpoint OD595 vs no drug) (fraction); higher = more growth
B. subtilis 168 = tested on: B. subtilis 168
Summary of the method: (§1)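 Fitness expresses the optical density reached at the stationary-phase transition as a fraction of the robust mean of no-drug control wells. It is capped at 1. Measurements were OD595 every 30 min for 14 h at 37 °C after inoculation of 384-well plates at OD595 0.01 (30 µl, or 55 µl for S. pneumoniae), minus the first reading.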

S. aureus Newman = settings: one replicate
Summary of the method: as §1

S. pneumoniae D39V = tested on: S. pneumoniae D39V
Summary of the method: as §1
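Also: OD595 on entry to stationary phase over no-drug wells; at most 1.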

Which fitness (B. subtilis 168; first compound 1.5 µg/mL, partner 0.15 µg/mL) does the source give for O=C(O)[C@H]1/C(=C/CO)O[C@@H]2CC(=O)N21 [Clavulanic acid] + CN(N=O)C(=O)N[C@@H](C=O)[C@@H](O)[C@H](O)[C@H](O)CO [Streptozotocin] here?
The fitness was 0.914.

What about the fitness (B. subtilis 168; first compound 1.5 µg/mL, partner 0.3 µg/mL) of the same molecule?
The fitness was 0.898.

And the fitness (B. subtilis 168; first compound 1.5 µg/mL, partner 0.6 µg/mL)?
The fitness was 0.911.

And the fitness (B. subtilis 168; first compound 3 µg/mL, partner 0.15 µg/mL)?
Its fitness is 0.861.

And the fitness (B. subtilis 168; first compound 3 µg/mL, partner 0.3 µg/mL)?
The fitness was 0.848.

And the fitness (B. subtilis 168; first compound 3 µg/mL, partner 0.6 µg/mL)?
Its fitness is 0.929.

And the fitness (B. subtilis 168; first compound 6 µg/mL, partner 0.15 µg/mL)?
Its fitness is 0.779.

And the fitness (B. subtilis 168; first compound 6 µg/mL, partner 0.3 µg/mL)?
Its fitness is 0.772.

And the fitness (B. subtilis 168; first compound 6 µg/mL, partner 0.6 µg/mL)?
Its fitness is 0.75.

And the fitness (S. aureus Newman; first compound 0.03125 µg/mL, partner 0.15 µg/mL)?
The fitness was 0.937.

And the fitness (S. aureus Newman; first compound 0.03125 µg/mL, partner 0.3 µg/mL)?
The fitness was 0.91.

And the fitness (S. aureus Newman; first compound 0.03125 µg/mL, partner 0.6 µg/mL)?
The fitness was 0.667.

And the fitness (S. aureus Newman; first compound 0.0625 µg/mL, partner 0.15 µg/mL)?
The fitness was 0.977.

What about the fitness (S. aureus Newman; first compound 0.0625 µg/mL, partner 0.3 µg/mL) of the same molecule?
The fitness was 0.911.

And the fitness (S. aureus Newman; first compound 0.0625 µg/mL, partner 0.6 µg/mL)?
Its fitness is 0.761.

And the fitness (S. aureus Newman; first compound 0.125 µg/mL, partner 0.15 µg/mL)?
Its fitness is 0.923.

What about the fitness (S. aureus Newman; first compound 0.125 µg/mL, partner 0.3 µg/mL) of the same molecule?
Its fitness is 0.865.

What about the fitness (S. aureus Newman; first compound 0.125 µg/mL, partner 0.6 µg/mL) of the same molecule?
Its fitness is 0.655.

And the fitness (S. pneumoniae D39V; first compound 0.5 µg/mL, partner 1.2 µg/mL)?
The fitness was 0.937.

And the fitness (S. pneumoniae D39V; first compound 0.5 µg/mL, partner 2.4 µg/mL)?
Its fitness is 0.979.

And the fitness (S. pneumoniae D39V; first compound 0.5 µg/mL, partner 4.8 µg/mL)?
The fitness was 0.944.

What about the fitness (S. pneumoniae D39V; first compound 1 µg/mL, partner 1.2 µg/mL) of the same molecule?
The fitness was 0.882.

And the fitness (S. pneumoniae D39V; first compound 1 µg/mL, partner 2.4 µg/mL)?
The fitness was 0.947.

What about the fitness (S. pneumoniae D39V; first compound 1 µg/mL, partner 4.8 µg/mL) of the same molecule?
The fitness was 0.864.

What about the fitness (S. pneumoniae D39V; first compound 2 µg/mL, partner 1.2 µg/mL) of the same molecule?
Its fitness is 0.784.

And the fitness (S. pneumoniae D39V; first compound 2 µg/mL, partner 2.4 µg/mL)?
Its fitness is 0.876.

What about the fitness (S. pneumoniae D39V; first compound 2 µg/mL, partner 4.8 µg/mL) of the same molecule?
The fitness was 0.747.

How did the fitness (B. subtilis 168; first compound 1.5 µg/mL, partner 2 µg/mL) turn out when O=C(O)[C@H]1/C(=C/CO)O[C@@H]2CC(=O)N21 [Clavulanic acid] + CN[C@@H]1[C@H](O)[C@H](NC)[C@H]2O[C@@]3(O)C(=O)C[C@@H](C)O[C@H]3O[C@@H]2[C@H]1O [Spectinomycin] was run?
Its fitness is 0.892.

What about the fitness (B. subtilis 168; first compound 1.5 µg/mL, partner 4 µg/mL) of the same molecule?
Its fitness is 0.929.

And the fitness (B. subtilis 168; first compound 1.5 µg/mL, partner 8 µg/mL)?
Its fitness is 0.934.

And the fitness (B. subtilis 168; first compound 3 µg/mL, partner 2 µg/mL)?
Its fitness is 0.951.

What about the fitness (B. subtilis 168; first compound 3 µg/mL, partner 4 µg/mL) of the same molecule?
The fitness was 0.868.

What about the fitness (B. subtilis 168; first compound 3 µg/mL, partner 8 µg/mL) of the same molecule?
The fitness was 0.867.

And the fitness (B. subtilis 168; first compound 6 µg/mL, partner 2 µg/mL)?
Its fitness is 0.832.

What about the fitness (B. subtilis 168; first compound 6 µg/mL, partner 4 µg/mL) of the same molecule?
The fitness was 0.755.

And the fitness (B. subtilis 168; first compound 6 µg/mL, partner 8 µg/mL)?
Its fitness is 0.72.

What about the fitness (S. aureus Newman; first compound 0.03125 µg/mL, partner 4 µg/mL) of the same molecule?
Its fitness is 0.961.

What about the fitness (S. aureus Newman; first compound 0.03125 µg/mL, partner 8 µg/mL) of the same molecule?
The fitness was 0.945.

And the fitness (S. aureus Newman; first compound 0.03125 µg/mL, partner 16 µg/mL)?
Its fitness is 0.92.

And the fitness (S. aureus Newman; first compound 0.0625 µg/mL, partner 4 µg/mL)?
The fitness was 0.922.

And the fitness (S. aureus Newman; first compound 0.0625 µg/mL, partner 8 µg/mL)?
The fitness was 0.945.

And the fitness (S. aureus Newman; first compound 0.0625 µg/mL, partner 16 µg/mL)?
The fitness was 0.885.

What about the fitness (S. aureus Newman; first compound 0.125 µg/mL, partner 4 µg/mL) of the same molecule?
The fitness was 0.916.

What about the fitness (S. aureus Newman; first compound 0.125 µg/mL, partner 8 µg/mL) of the same molecule?
Its fitness is 0.958.

What about the fitness (S. aureus Newman; first compound 0.125 µg/mL, partner 16 µg/mL) of the same molecule?
The fitness was 0.905.

And the fitness (S. pneumoniae D39V; first compound 0.5 µg/mL, partner 4 µg/mL)?
The fitness was 0.916.

And the fitness (S. pneumoniae D39V; first compound 0.5 µg/mL, partner 8 µg/mL)?
Its fitness is 0.852.

And the fitness (S. pneumoniae D39V; first compound 0.5 µg/mL, partner 16 µg/mL)?
The fitness was 0.658.

And the fitness (S. pneumoniae D39V; first compound 1 µg/mL, partner 4 µg/mL)?
Its fitness is 0.809.

And the fitness (S. pneumoniae D39V; first compound 1 µg/mL, partner 8 µg/mL)?
The fitness was 0.845.

And the fitness (S. pneumoniae D39V; first compound 1 µg/mL, partner 16 µg/mL)?
The fitness was 0.621.

What about the fitness (S. pneumoniae D39V; first compound 2 µg/mL, partner 4 µg/mL) of the same molecule?
The fitness was 0.79.

What about the fitness (S. pneumoniae D39V; first compound 2 µg/mL, partner 8 µg/mL) of the same molecule?
The fitness was 0.749.

And the fitness (S. pneumoniae D39V; first compound 2 µg/mL, partner 16 µg/mL)?
The fitness was 0.447.
